Patent US6221914A, “Sulfonamide bridging compounds that inhibit tryptase activity” (Array Biopharma Inc., priority 1998, dated 2001)

Legend:
Type in all cases: biochemical
[1] = biological target: T1, Bovine Pancreatic Chymotrypsin (Bos taurus, UniProt P00766); assay: Ki determination, bovine pancreatic chymotrypsin (N-Suc-Ala-Ala-Pro-Phe-pNA); conditions: 100 mM Tris-HCl, pH 7.8, 10 mM CaCl2; read-out: Experimentally Determined Ki, Chymotrypsin
T1 construct: from tissue; host or cells: bovine pancreas
Procedure: (§1) Protease inhibition was assayed according to published procedures with minor modifications using various proteases and specific chromogenic peptide p-nitroanilide substrates. Assays were performed in Costar ultra-low cluster 96-well microtiter plate (Costar Corning Corp., Cambridge Mass.). Each protease was incubated with various concentrations of the test compound for 15 min. at 37° C. or as otherwise indicated, in specific assay buffer, and the residual activity was then measured by addition of the substrate. p-Nitroaniline produced by the proteolysis was determined by measuring the change in absorbance at 405 nm on a SpectraMAX 340 plate reader (Molecular devices, Sunnyvale, Calif.).
(§2) 1. The inhibition constant, Ki is calculated from individual data points using the equation for a tight-binding inhibitor (See Beith, "Proteinase Inhibitors-Proceedings of 2nd Int. Res. Conference", Fritz, et al. eds, New York, p.4463-4469 (1974)):
(§3) vi /vo [((Ki '+[I]+[E]o)^2 -4 [I]o
(§4) [E]o)^1/2 (Ki '+[I]o -[E]o)]/2[E]o
(§5) where Ki ' is apparent inhibition constant; vi and vo are the inhibited and uninhibited rates, respectively; [I]o and [E]o are the total concentrations of inhibitor and enzyme, respectively.
(§6) [note: [E]o is determined by active site titration of enzyme]
(§7) The Ki values are obtained by correcting Ki ' values for the effect of substrate concentration according to: [formula]
(§8) 2. Other inhibition data (Ki >>[E]o), the Ki is calculated from using the equations for a competitive inhibitor: [formula]
Bovine Pancreatic Chymotrypsin activity was determined by using N-Suc-Ala-Ala-Pro-Phe-pNA in 100 mM Tris-HCl, pH 7.8, 10 mM CaCl2 (See Delmar, et al., J. Biochem. 85, 157-162 (1979)).
(§9) The inhibition constant (Ki) of the test compounds against each proteolytic enzyme was determined according to Zitnik et al., Biochem. Biophys. Res. Commun. 232, 687-697 (1997)).

[2] = biological target: T2, Human plasma factor Xa (Homo sapiens, UniProt P00742); assay: Ki determination, human plasma factor Xa (N-Benzoyl-Ile-Glu-Gly-Arg-pNA); conditions: 50 mM Tris-HCl, pH 7.8, 200 mM NaCl, 0.05% BSA; read-out: Experimentally Determined Ki, Factor Xa
T2 construct: from tissue; host or cells: human plasma
Procedure: as §1, §2, §3, §4, §5, §6, §7, §8
Human plasma factor Xa activity was determined by using N-Benzoyl-Ile-Glu-Gly-Arg-pNA in 50 mM Tris-HCl, pH 7.8, 200 mM NaCl, 0.05% BSA (See Lottenberg, et al. Meth. Enzymol. 80, 341-361 (1981)).
as §9

[3] = biological target: r-tissue kallikrein (Homo sapiens, UniProt P06870); assay: Ki determination, r-tissue kallikrein (DL-Val-Leu-Arg-pNA); conditions: 50 mM Tris-HCl, pH 7.8, 200 mM NaCl, 0.05% BSA; read-out: Experimentally Determined Ki, Tissue Kallikrein
Procedure: as §1, §2, §3, §4, §5, §6, §7, §8
I. Human Plasma and r-Tissue Kallikrein
Human plasma and r-tissue kallikrein activity were determined in 50 mM Tris-HCl, pH 7.8, 200 mM NaCl, 0.05% BSA by using H-D-Prolyl-Phe-Arg-pNA and DL-Val-Leu-Arg-pNA, respectively (See Lottenberg, et al., Meth. Enzymol. 80, 341-361 (1981)).
as §9

[4] = biological target: T3, Human plasma plasmin (Homo sapiens, UniProt P00747); assay: Ki determination, human plasma plasmin (Tosyl-Gly-Pro-Lys-pNA); conditions: 100 mM Tris-HCl, pH 7.4, 100 mM NaCl, 0.05% Triton X-100; read-out: Experimentally Determined Ki, Plasmin
T3 construct: from tissue; host or cells: human plasma
Procedure: as §1, §2, §3, §4, §5, §6, §7, §8
Human plasma plasmin activity was determined by using Tosyl-Gly-Pro-Lys-pNAin 100 mM Tris-HCl, pH 7.4, 100 mM NaCl, 0.05% Triton X-100 (See Lottenberg, et al., Meth. Enzymol. 80, 341-361 (1981)).
as §9

[5] = biological target: T4, Bovine pancreatic Trypsin (Bos taurus, UniProt P00760); assay: Ki determination, bovine pancreatic trypsin (N-a-Benzoyl-L-Arg-pNA); conditions: 50 mM Tris-HCl, pH 8.2, 20 mM CaCl2; read-out: Experimentally Determined Ki, Trypsin
T4 construct: from tissue; host or cells: bovine pancreas
T4 sequence (P00760 24-246): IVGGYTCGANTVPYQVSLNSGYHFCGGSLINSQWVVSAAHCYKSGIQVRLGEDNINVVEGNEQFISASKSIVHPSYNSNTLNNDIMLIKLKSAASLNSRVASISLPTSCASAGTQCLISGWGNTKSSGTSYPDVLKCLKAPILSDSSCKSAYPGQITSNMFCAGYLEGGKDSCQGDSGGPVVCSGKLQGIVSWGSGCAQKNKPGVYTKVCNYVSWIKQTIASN
Procedure: as §1, §2, §3, §4, §5, §6, §7, §8
Bovine pancreatic Trypsin (TPCK-treated) activity was determined by using N-a-Benzoyl-L-Arg-pNA in 50 mM Tris-HCl, pH 8.2, 20 mM CaCl2 (See Somorin, et al., J. Biochem. 85, 157-162 (1979)).
as §9

[6] = biological target: T5, Human plasma thrombin (Homo sapiens, UniProt P00734); assay: Ki determination, human plasma thrombin (H-D-Phe-Pip-Arg-pNA); conditions: 50 mM Tris-HCl, pH 8.3, 100 mM NaCl, 1% BSA; read-out: Experimentally Determined Ki, Thrombin
T5 construct: from tissue; host or cells: human plasma
Procedure: as §1, §2, §3, §4, §5, §6, §7, §8
Human plasma thrombin activity was determined by using H-D-Phe-Pip-Arg-pNA in 50 mM Tris-HCl, pH 8.3, 100 mM NaCl, 1% BSA (See Lottenberg, et al. Meth. Enzymol. 80, 341-361 (1981)).
as §9

[7] = biological target: T6, Human Neutrophil elastase (Homo sapiens, UniProt P08246); assay: Ki determination, human neutrophil elastase (pyroGlu-Pro-Val-pNA); conditions: 100 mM Tris-HCl, pH 8.3, 0.96 M NaCl, 1% BSA; read-out: Experimentally Determined Ki, Elastase
T6 construct: from tissue; host or cells: human neutrophils
T6 sequence (P08246 30-267): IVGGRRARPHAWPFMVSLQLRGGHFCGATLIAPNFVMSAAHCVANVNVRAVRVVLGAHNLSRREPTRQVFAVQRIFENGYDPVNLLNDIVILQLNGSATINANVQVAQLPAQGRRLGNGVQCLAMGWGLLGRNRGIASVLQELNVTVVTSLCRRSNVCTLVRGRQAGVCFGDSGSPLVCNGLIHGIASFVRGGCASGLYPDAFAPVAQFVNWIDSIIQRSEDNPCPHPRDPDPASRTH
Procedure: as §1, §2, §3, §4, §5, §6, §7, §8
Human Neutrophil elastase activity was determined by using pyroGlu-Pro-Val-pNA in 100 mM Tris-HCl, pH 8.3, 0.96 M NaCl, 1% BSA (See Kramps, et al. Scand. J. Clin. Lab. Invest. 43, 427-432 (1983)).
as §9

r-tissue kallikrein, sequence (P06870 25-262): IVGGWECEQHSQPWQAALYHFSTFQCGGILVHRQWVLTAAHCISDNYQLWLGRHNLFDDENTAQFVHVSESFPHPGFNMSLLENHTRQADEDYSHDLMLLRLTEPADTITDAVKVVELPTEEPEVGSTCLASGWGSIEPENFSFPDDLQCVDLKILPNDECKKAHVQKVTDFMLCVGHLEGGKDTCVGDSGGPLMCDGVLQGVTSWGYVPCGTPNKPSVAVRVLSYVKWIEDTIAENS
T2 sequence (P00742 235-488 limits assumed): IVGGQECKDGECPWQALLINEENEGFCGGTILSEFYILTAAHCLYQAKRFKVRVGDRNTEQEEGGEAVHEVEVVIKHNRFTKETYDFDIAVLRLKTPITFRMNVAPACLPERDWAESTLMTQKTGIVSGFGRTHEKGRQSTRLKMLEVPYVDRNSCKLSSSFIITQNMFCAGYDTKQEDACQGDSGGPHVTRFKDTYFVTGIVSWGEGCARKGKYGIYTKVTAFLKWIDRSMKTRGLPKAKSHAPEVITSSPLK
T2 sequence (P00742 41-179 partner limits assumed): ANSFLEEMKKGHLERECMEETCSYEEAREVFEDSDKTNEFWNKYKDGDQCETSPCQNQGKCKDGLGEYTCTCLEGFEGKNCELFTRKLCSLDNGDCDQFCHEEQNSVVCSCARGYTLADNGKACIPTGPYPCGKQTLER
T3 sequence (P00747 581-810 limits assumed): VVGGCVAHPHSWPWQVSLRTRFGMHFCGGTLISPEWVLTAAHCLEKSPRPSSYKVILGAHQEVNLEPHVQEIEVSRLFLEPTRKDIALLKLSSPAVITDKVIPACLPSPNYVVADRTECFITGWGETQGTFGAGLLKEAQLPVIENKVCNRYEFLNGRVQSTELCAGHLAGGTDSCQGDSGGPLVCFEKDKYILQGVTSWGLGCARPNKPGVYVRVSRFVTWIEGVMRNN
T3 sequence (P00747 97-580 partner limits assumed): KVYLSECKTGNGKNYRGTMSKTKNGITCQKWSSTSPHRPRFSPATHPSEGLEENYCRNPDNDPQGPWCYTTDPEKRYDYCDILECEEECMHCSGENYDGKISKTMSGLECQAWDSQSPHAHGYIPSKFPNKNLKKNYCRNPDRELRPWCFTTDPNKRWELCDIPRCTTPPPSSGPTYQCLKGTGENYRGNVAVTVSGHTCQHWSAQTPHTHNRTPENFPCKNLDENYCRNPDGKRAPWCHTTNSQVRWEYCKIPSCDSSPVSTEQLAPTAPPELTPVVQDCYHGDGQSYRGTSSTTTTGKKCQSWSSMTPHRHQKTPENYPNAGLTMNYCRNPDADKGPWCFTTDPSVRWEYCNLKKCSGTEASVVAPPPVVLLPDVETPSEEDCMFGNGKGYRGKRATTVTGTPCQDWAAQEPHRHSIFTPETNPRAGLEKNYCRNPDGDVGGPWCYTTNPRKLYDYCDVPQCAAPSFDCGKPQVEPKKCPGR

| SMILES | Ki [1] | Ki [2] | Ki [3] | Ki [4] | Ki [5] | Ki [6] | Ki [7] |
| --- | --- | --- | --- | --- | --- | --- | --- |
| N=C(N)c1cccc(S(=O)(=O)NCc2ccc(OCCCCCOc3ccc(CNS(=O)(=O)c4cccc(C(=N)N)c4)cc3)cc2)c1 [Example 41, 1,5-Bis-{4-[(3-carbamimidoyl-benzenesulfonylamino)-methyl]-phenoxy}-pentane] | > 100 µM | 6.4 µM | > 100 µM | 0.93 µM | 2.5 µM | > 100 µM | > 100 µM |
| N=C(N)c1cccc(S(=O)(=O)NCc2ccc(OCCCCCCOc3ccc(CNS(=O)(=O)c4cccc(C(=N)N)c4)cc3)cc2)c1 [Example 43, 1,6-Bis-{4-[(3-carbamimidoyl-benzenesulfonylamino)-methyl]-phenoxy}-hexane] | 20 µM | 15.6 µM | > 100 µM | 2.6 µM | 3.6 µM | > 100 µM | > 100 µM |
| N=C(N)c1cccc(S(=O)(=O)NCc2ccc(OCCCCCCCOc3ccc(CNS(=O)(=O)c4cccc(C(=N)N)c4)cc3)cc2)c1 [Example 45, 1,7-Bis-{4-[(3-carbamimidoyl-benzenesulfonylamino)-methyl]-phenoxy}-heptane] | > 100 µM | 7.6 µM | > 100 µM | 10 µM | 12 µM | > 100 µM | > 100 µM |
| N=C(N)c1cccc(S(=O)(=O)NCc2ccc(OCCCCOc3ccc(CNS(=O)(=O)c4cccc(C(=N)N)c4)cc3)cc2)c1 [Example 47, 1,4-Bis-{4-[(3-carbamimidoyl-benzenesulfonylamino)-methyl]-phenoxy}-butane] | > 100 µM | 2.9 µM | > 100 µM | 0.06 µM | 1.8 µM | > 100 µM | > 100 µM |
| N=C(N)c1cccc(S(=O)(=O)NCc2ccc(OCCCOc3ccc(CNS(=O)(=O)c4cccc(C(=N)N)c4)cc3)cc2)c1 [Example 49, 3,1-Bis-{4-[(3-carbamimidoyl-benzenesulfonylamino)-methyl]-phenoxy}-propane] | > 100 µM | 7.4 µM | > 100 µM | 0.74 µM | 2.8 µM | > 100 µM | > 100 µM |
| N=C(N)c1ccc(S(=O)(=O)NCc2ccc(OCCCOc3ccc(CNS(=O)(=O)c4ccc(C(=N)N)cc4)cc3)cc2)cc1 [Example 50, 1,3-Bis-{4-[(4-carbamimidoyl-benzenesulfonylamino)-methyl]-phenoxy}-propane] | 6.3 µM | > 100 µM | > 100 µM | 6.1 µM |  | > 100 µM | > 100 µM |
| N=C(N)c1cccc(S(=O)(=O)NCc2ccc(OCCOc3ccc(CNS(=O)(=O)c4cccc(C(=N)N)c4)cc3)cc2)c1 [Example 51, 1,2-Bis-{4-[(3-carbamimidoyl-benzenesulfonylamino)-methyl]-phenoxy}-ethane] | > 100 µM | 6.1 µM | > 100 µM | 2 µM | 5.2 µM | > 100 µM | > 100 µM |
| N=C(N)c1cccc(S(=O)(=O)NCc2ccc(COCc3ccc(CNS(=O)(=O)c4cccc(C(=N)N)c4)cc3)cc2)c1 [Example 53, 1,3-Bis-{4-[(3-carbamimidoyl-benzenesulfonylamino)-methyl]-phenyl}-2-oxapropane] | > 100 µM | 16 µM | > 100 µM | 10 µM | 3 µM | > 100 µM | > 100 µM |
| N=C(N)c1ccc(C(=O)NCc2ccc(OCCCCCOc3ccc(CNC(=O)c4ccc(C(=N)N)cc4)cc3)cc2)cc1 [Example 54, 1,5-Bis-{4-[(4-carbamimidoyl-benzenecarbonylamino)-methyl]-phenoxy}-pentane] | > 100 µM | > 100 µM | > 100 µM | 4.1 µM | 0.91 µM | > 100 µM | > 100 µM |
| N=C(N)c1cccc(C(=O)NCc2ccc(OCCCCCOc3ccc(CNC(=O)c4cccc(C(=N)N)c4)cc3)cc2)c1 [Example 55, 1,5-Bis-{4-[(3-carbamimidoyl-benzenecarbonylamino)-methyl]-phenoxy}-pentane] | > 100 µM | 1.8 µM | > 100 µM | 7.6 µM | 0.9 µM | > 100 µM | > 100 µM |
| N=C(N)c1ccc(C(=O)NCc2ccc(OCCCCCCOc3ccc(CNC(=O)c4ccc(C(=N)N)cc4)cc3)cc2)cc1 [Example 56, 1,6-Bis-{4-[(4-carbamimidoyl-benzenecarbonylamino)-methyl]-phenoxy}-hexane] | > 100 µM |  | > 100 µM | 1.6 µM | 1.3 µM | > 100 µM | > 100 µM |
| N=C(N)c1cccc(C(=O)NCc2ccc(OCCCCCCOc3ccc(CNC(=O)c4cccc(C(=N)N)c4)cc3)cc2)c1 [Example 57, 1,6-Bis-{4-[(3-carbamimidoyl-benzenecarbonylamino)-methyl]-phenoxy}-hexane] | > 100 µM |  | > 100 µM | 10.7 µM | 1.7 µM | > 100 µM | > 100 µM |
| N=C(N)c1ccc(C(=O)NCc2ccc(OCCCCCCCOc3ccc(CNC(=O)c4ccc(C(=N)N)cc4)cc3)cc2)cc1 [Example 58, 1,7-Bis-{4-[(4-carbamimidoyl-benzenecarbonylamino)-methyl]-phenoxy}-heptane] | > 100 µM | 20 µM | > 100 µM | 3.8 µM | 1.5 µM | > 100 µM | > 100 µM |
| N=C(N)c1cccc(C(=O)NCc2ccc(OCCCOc3ccc(CNC(=O)c4cccc(C(=N)N)c4)cc3)cc2)c1 [Example 63, 1,3-Bis-{4-[(3-carbamimidoyl-benzoylamino)-methyl]-phenoxy}-propane] | > 100 µM |  | > 100 µM | 28 µM | 2.4 µM | > 100 µM | > 100 µM |
